# Measurements published in US20030009213A1, “Stent having cover with drug delivery capability” (priority 2000, published 2003).
# Assay: Release of Taxol from a coated ePTFE stent cover after implantation
# Type: in vivo
# Details: first week after implantation; ePTFE stent cover with outer layer of Taxol, gelatin and poly(e-caprolactone) mixture (20:20:60)
# Description: A polymeric stent cover, made of ePTFE, is provided with another layer of Taxol, gelatin, and poly(e-caprolactone) mixture (20:20:60) on the outside. 20% of the Taxol is released to the artery wall during the first week after implantation.
compound,measurement,value
CC(=O)O[C@H]1C(=O)[C@@]2(C)[C@H]([C@H](OC(=O)c3ccccc3)[C@]3(O)C[C@H](OC(=O)[C@H](O)[C@@H](NC(=O)c4ccccc4)c4ccccc4)C(C)=C1C3(C)C)[C@]1(OC(C)=O)CO[C@@H]1C[C@@H]2O [Taxol],Taxol released to the artery wall,20%
